The values below come from patent US9938279B2, “Method for treating disease or condition susceptible to amelioration by AMPK activators and compounds of formula which are useful to activate AMP-activated protein kinase (AMPK)” (ENERGENESIS BIOMEDICAL CO., LTD, priority 2013, dated 2018).

Assay [1] deals with AMPK. The assay can be described thus: AMPK activation assay (western blot phospho-AMPK Thr172) in Hep G2. The assay is classed as cell-based, human. The conditions noted are these: Hep G2 cells, 30 min treatment. In outline: (§1)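 Mouse C2C12, mouse 3T3-L1 and human Hep G2 cells in high-glucose DMEM/10% FBS were treated with compounds for 30 min, 24 h after plating. Lysates were western-blotted for phospho-AMPK (Thr172) and total AMPK, ECL-detected, and bands quantified by densitometry.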

The subject of assay [2] is AMPK. The assay can be described thus: AMPK activation assay (western blot phospho-AMPK Thr172) in C2C12. The assay is classed as cell-based, mouse. The conditions noted are these: C2C12 cells, 30 min treatment. In outline:
as §1
A general note: In western blotting, separated proteins are transferred to a membrane and probed.

For assay [3], the system named is AMPK. The assay can be described thus: AMPK activation assay (western blot phospho-AMPK Thr172) in 3T3-L1. The assay is classed as cell-based, mouse. The note with it: 3T3-L1 cells, 30 min treatment. Summed up:
as §1

Molecules are shown by their SMILES.

Turning to `Nc1nc(I)nc2nc[nH]c12` [Example 2-iodoadenine, 2-iodoadenine], the “AMPK activation (% to control) Hep G2” value is on record as 115 % to control in the assay with AMPK [1] (1 microM), 151 % to control in the assay on AMPK [1] (10 microM), 227 % to control in the assay with AMPK [1] (100 microM) and 341 % to control with AMPK [1] (200 microM). Moreover, the “AMPK activation (% to control) C2C12” value is listed as 114 % to control with AMPK [2] (1 microM), 143 % to control with AMPK [2] (10 microM), 214 % to control with AMPK [2] (100 microM) and 311 % to control with AMPK [2] (200 microM). Moreover, the “AMPK activation (% to control) 3T3-L1” value in the assay on AMPK [3] (1 microM) is listed as 116 % to control; in the assay with AMPK [3] (10 microM), 179 % to control; in the assay on AMPK [3] (100 microM), 237 % to control; in the assay with AMPK [3] (200 microM) it was 358 % to control.
Regarding `Oc1nc(S)nc2nc[nH]c12` [Example 2-mercapto-6-hydroxypurine, 2-mercapto-6-hydroxypurine], the “AMPK activation (% to control) Hep G2” value is reported as 113 % to control in the assay with AMPK [1] (1 microM), 132 % to control in the assay on AMPK [1] (10 microM), 209 % to control in the assay on AMPK [1] (100 microM) and 315 % to control with AMPK [1] (200 microM). Also, the “AMPK activation (% to control) C2C12” value is recorded as 109 % to control with AMPK [2] (1 microM), 148 % to control in the assay with AMPK [2] (10 microM), 251 % to control with AMPK [2] (100 microM) and 333 % to control with AMPK [2] (200 microM). The “AMPK activation (% to control) 3T3-L1” value in the assay with AMPK [3] (1 microM) is listed as 115 % to control; in the assay on AMPK [3] (10 microM), 147 % to control; with AMPK [3] (100 microM) it was 220 % to control; in the assay on AMPK [3] (200 microM), 308 % to control.
Consider `Nc1nc(S)nc2nc[nH]c12` [Example 2-mercaptoadenine, 2-mercaptoadenine], for which the “AMPK activation (% to control) Hep G2” value in the assay on AMPK [1] (1 microM) is 118 % to control; in the assay with AMPK [1] (10 microM), 119 % to control; in the assay on AMPK [1] (100 microM), 195 % to control; in the assay on AMPK [1] (200 microM) it was 308 % to control. In addition, the “AMPK activation (% to control) C2C12” value in the assay with AMPK [2] (1 microM) is 105 % to control; in the assay on AMPK [2] (10 microM), 115 % to control; with AMPK [2] (100 microM), 221 % to control; in the assay on AMPK [2] (200 microM) it was 289 % to control. In addition, the “AMPK activation (% to control) 3T3-L1” value with AMPK [3] (1 microM) is on record as 112 % to control; with AMPK [3] (10 microM), 128 % to control; with AMPK [3] (100 microM) it was 204 % to control; in the assay with AMPK [3] (200 microM), 297 % to control.
`Cc1nc(O)c2[nH]cnc2n1` [Example 2-methyl-6-hydroxypurine, 2-methyl-6-hydroxypurine]: the “AMPK activation (% to control) Hep G2” value with AMPK [1] (1 microM) is 116 % to control; with AMPK [1] (10 microM), 162 % to control; in the assay with AMPK [1] (100 microM), 219 % to control; in the assay on AMPK [1] (200 microM) it was 347 % to control. Moreover, the “AMPK activation (% to control) C2C12” value in the assay with AMPK [2] (1 microM) was 109 % to control; in the assay on AMPK [2] (10 microM), 139 % to control; in the assay on AMPK [2] (100 microM), 241 % to control; in the assay on AMPK [2] (200 microM) it was 305 % to control. Further, the “AMPK activation (% to control) 3T3-L1” value with AMPK [3] (1 microM) is given as 112 % to control; in the assay on AMPK [3] (10 microM), 144 % to control; in the assay with AMPK [3] (100 microM), 228 % to control; in the assay with AMPK [3] (200 microM), 338 % to control.
As to `O=c1[nH]cc(F)c(=O)[nH]1` [Example 5-fluorouracil, 5-fluorouracil], the “AMPK activation (% to control) Hep G2” value in the assay with AMPK [1] (1 microM) is given as 110 % to control; in the assay on AMPK [1] (10 microM), 134 % to control; with AMPK [1] (100 microM) it was 237 % to control; with AMPK [1] (200 microM) it was 319 % to control. The “AMPK activation (% to control) C2C12” value is listed as 105 % to control with AMPK [2] (1 microM), 105 % to control in the assay with AMPK [2] (10 microM), 224 % to control in the assay with AMPK [2] (100 microM) and 318 % to control in the assay with AMPK [2] (200 microM). Also, the “AMPK activation (% to control) 3T3-L1” value with AMPK [3] (1 microM) is reported as 108 % to control; with AMPK [3] (10 microM), 113 % to control; in the assay with AMPK [3] (100 microM), 248 % to control; with AMPK [3] (200 microM), 322 % to control.
Consider `Cc1c[nH]c(=O)nc1N` [Example 5-methylcytosine, 5-methylcytosine], for which the “AMPK activation (% to control) Hep G2” value is 107 % to control with AMPK [1] (1 microM), 114 % to control in the assay on AMPK [1] (10 microM), 218 % to control in the assay with AMPK [1] (100 microM) and 317 % to control in the assay on AMPK [1] (200 microM). For the same compound, the “AMPK activation (% to control) C2C12” value is given as 116 % to control with AMPK [2] (1 microM), 157 % to control in the assay with AMPK [2] (10 microM), 241 % to control in the assay with AMPK [2] (100 microM) and 338 % to control with AMPK [2] (200 microM). Also, the “AMPK activation (% to control) 3T3-L1” value with AMPK [3] (1 microM) is 115 % to control; in the assay on AMPK [3] (10 microM), 161 % to control; in the assay on AMPK [3] (100 microM), 253 % to control; in the assay with AMPK [3] (200 microM), 356 % to control.
Turning to `O=c1cn[nH]c(=O)[nH]1` [Example 6-azauracil, 6-azauracil], the “AMPK activation (% to control) Hep G2” value in the assay with AMPK [1] (1 microM) is recorded as 108 % to control; in the assay on AMPK [1] (10 microM), 124 % to control; in the assay with AMPK [1] (100 microM) it was 199 % to control; with AMPK [1] (200 microM), 273 % to control. In addition, the “AMPK activation (% to control) C2C12” value in the assay with AMPK [2] (1 microM) was 109 % to control; with AMPK [2] (10 microM), 109 % to control; in the assay with AMPK [2] (100 microM) it was 197 % to control; with AMPK [2] (200 microM) it was 284 % to control. Further, the “AMPK activation (% to control) 3T3-L1” value in the assay with AMPK [3] (1 microM) was 109 % to control; in the assay on AMPK [3] (10 microM) it was 115 % to control; in the assay on AMPK [3] (100 microM), 185 % to control; with AMPK [3] (200 microM) it was 288 % to control.
Regarding `c1nc(NC2CCCCC2)c2[nH]cnc2n1` [Example 6-cyclohexylaminopurine, 6-cyclohexylaminopurine], the “AMPK activation (% to control) Hep G2” value was 111 % to control with AMPK [1] (1 microM), 132 % to control in the assay on AMPK [1] (10 microM), 261 % to control in the assay on AMPK [1] (100 microM) and 354 % to control in the assay with AMPK [1] (200 microM). For the same compound, the “AMPK activation (% to control) C2C12” value in the assay with AMPK [2] (1 microM) is reported as 107 % to control; with AMPK [2] (10 microM), 110 % to control; with AMPK [2] (100 microM), 248 % to control; with AMPK [2] (200 microM), 322 % to control. Further, the “AMPK activation (% to control) 3T3-L1” value was 107 % to control with AMPK [3] (1 microM), 152 % to control in the assay with AMPK [3] (10 microM), 269 % to control in the assay with AMPK [3] (100 microM) and 333 % to control with AMPK [3] (200 microM).
